The record followed here is patent US9102648B1, “Bioavailable diacylhydrazine ligands for modulating the expression of exogenous genes via an ecdysone receptor complex” (Intrexon Corporation, priority 2003, dated 2015).

Molecules are shown by their SMILES. pEC50: −log10 of the molar value. Where two headings read alike, the source gives them in different places.

The subject of series [1] is mutated ecdysone receptor-based gene switch. In words: In vivo SEAP induction, ligand by IP injection. Also noted: species or system C57BL/6 mouse. The settings on record: IP 26 nmol ligand. How it is done: Applicants' ligands are useful in various applications including gene therapy, expression of proteins of interest in host cells, production of transgenic organisms, and cell-based assays. In vivo induction of a reporter enzyme with various ligands of the present invention was evaluated in a C57BL/6 mouse model system containing a gene switch.
Each element of the gene switch was on a separate plasmid. Receptor expression was under the control of a CMV promoter (SEQ ID NO: 15). Induction was evaluated by the amount of reporter protein expressed in the presence of ligand.
SEAP expression in serum of mice was evaluated after electroporation of the gene switch into mouse quadriceps. Mice were anesthetized with 2 μL/g of a mixture of ketamine (100 mg/mL) and xylazine (20 mg/mL). Animals were then shaved, DNA vectors injected into the muscle in a volume of 2×50 μL polyglutamic acid (12 mg/mL water), electrode conductivity gel applied, and an electrode caliber (1 cm×1 cm; model 384) was placed on hind leg. The muscle was electroporated with 200 V/cm, 8 times, for 20 msec/pulse, at 1 sec time intervals. The transverse electrical field direction was reversed after the animals received half of the pulses. Electroporation was performed with an ECM 830 electroporator from BTX Molecular Delivery Systems.
In some experiments mice received an intraperitoneal injection (IP) of 2.6 μmol of ligand in 50 μL of DMSO 3 days after electroporation of the gene switch. In other experiments the concentration of ligand was decrease to 26 nmol/50 μL of DMSO/mouse. SEAP expression was evaluated 2-11 days after ligand administration. In other experiments ligand was administered in rodent chow. The chow was prepared by dissolving 2 g of ligand in 20 mL of acetone and adding it to 1 kg of LabDiet 5010 autoclavable chow from Purina Mills. This was thoroughly mixed in a Hobart mixer and then mixed for an additional 15 min in a Cross Blend mixer. Animals received chow ad libitum for 1, 2, or 3 days. All values are the average from four animals. Background SEAP in sera from animals treated with vector alone without ligand addition was 0-11 ng/mL serum.
Mouse serum was obtained by centrifugation of blood acquired by retroorbital bleeding with a small glass capillary tube. SEAP quantification was determined using a Clontech Great Escape chemiluminescence kit and by comparison with the Clontech SEAP standard.
Table 9: In vivo evaluation of ligand-mediated induction of a mutated ecdysone receptor-based gene switch. SEAP expression in serum of mice was evaluated after electroporation of the gene expression cassettes into mouse quadriceps. Mice received an IP injection of 2.6 μmol of ligand 3 days after electroporation. SEAP expression was evaluated 2-11 days after ligand administration. Each dose group was composed of four animals. Percentage of GS™-E ligand induction was determined by averaging SEAP expression from four animals divided by the average SEAP expression induced with GS™-E ligand and then multiplying by 100.
Table 10: Induction of gene switch expression with low concentrations of ligand. SEAP expression in serum of mice was evaluated after electroporation of the gene expression cassettes into mouse quadriceps. Mice received an IP injection of 26 nmol of ligand or 130 nmol GS™-E ligand 3 days after electroporation. SEAP expression was evaluated 2-7 days after ligand administration. Values are the average from 4 animals.

The target in series [2] is GAL4 DBD (1-147)-CfEcR(DEF)/VP16AD-βRXREF-LmUSPEF (Choristoneura fumiferana, UniProt O77240). The series is described as follows: cell-based. The settings on record: for 27-63 assay Rel Max FI: maximum fold induction at any concentration relative to that of GS-E ligand, CHO 27-63 cells; for fold induction at 33 µM: read-out: Fold Induction, 27-63 Assay, 33 uM. An excerpt: GAL4 DBD (1-147)-CfEcR(DEF)/VP16AD-βRXREF-LmUSPEF:
The wild-type D, E, and F domains from spruce budworm Choristoneura fumiferana EcR (“CfEcR-DEF”; SEQ ID NO: 1) were fused to a GAL4 DNA binding domain (“Gal4DBD1-147”; SEQ ID NO: 2) and placed under the control of a phosphoglycerate kinase promoter (“PGK”; SEQ ID NO: 3). Helices 1 through 8 of the EF domains from Homo sapiens RXRβ (“HsRXRβ-EF”; nucleotides 1-465 of SEQ ID NO: 4) and helices 9 through 12 of the EF domains of Locusta migratoria Ultraspiracle Protein (“LmUSP-EF”; nucleotides 403-630 of SEQ ID NO: 5) were fused to the transactivation domain from VP16 (“VP16AD”; SEQ ID NO: 6) and placed under the control of an elongation factor-1α promoter (“EF-1α”; SEQ ID NO: 7). Five consensus GAL4 response element binding sites (“5XGAL4RE”; comprising 5 copies of a GAL4RE comprising SEQ ID NO: 8) were fused to a synthetic TATA minimal promoter (SEQ ID NO: 9) and placed upstream of the luciferase reporter gene (SEQ ID NO: 10).
CHO cells were transiently transfected with transcription cassettes for GAL4 DBD (1-147) CJEcR(DEF) and for VP16AD βRXREF-LmUSPEF controlled by ubiquitously active cellular promoters (PGK and EF-la, respectively) on a single plasmid. Stably transfected cells were selected by Zeocin resistance. Individually isolated CHO cell clones were transiently transfected with a GAL4 RE-luciferase reporter (pFR Luc). 27-63 clone was selected using Hygromycin.
Cells were trypsinized and diluted to a concentration of 2.5×10^4 cells mL. 100 μL of cell suspension was placed in each well of a 96 well plate and incubated at 37° C. under 5% CO2 for 24 h. Ligand stock solutions were prepared in DMSO and diluted 300 fold for all treatments. Dose response testing consisted of 8 concentrations ranging from […] to 0.01 μM.
Luciferase reporter gene expression was measured 48 h after cell treatment using Bright-Glo™ Luciferase Assay System from Promega (E2650). Luminescence was detected at room temperature using a Dynex MLX microtiter plate luminometer.
Each assay was conducted in two separate wells, and the two values were averaged. Fold inductions were calculated by dividing relative light units (“RLU”) in ligand treated cells with RLU in DMSO treated cells. EC50s were calculated from dose response data using a three-parameter logistic model.

The target of series [3] is GAL4 DBD-CfEcR(DEF)/VP16AD-MmRXRE (Choristoneura fumiferana, UniProt O77240). In words: 13B3 Assay (CHO stable cell line, luciferase reporter). The settings on record: for 13B3 assay Rel Max FI: maximum fold induction at any concentration relative to that of GS-E ligand, CHO 13B3 cells; for fold induction at 3.3 µM: read-out: Fold Induction, 13B3 Assay, 3.3 uM; for fold induction at 33 µM: read-out: Fold Induction, 13B3 Assay, 33 uM; for Fold Induction, 13B3 Assay, 33 uM: 33 uM ligand. The procedure, abridged:
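Ligands dosed at 8 levels from 33 to 0.01 μM (DMSO stocks diluted 300-fold) onto the 13B3 CHO line carrying GAL4-DBD/CfEcR-DEF, VP16/MmRXR-DE and a GAL4-responsive luciferase gene.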
(Reporter assays use an easily measured gene product as a stand-in for the process of interest.)

Series [4] addresses T1, Bombyx mori EcR (VP16 fusion, CVBE switch construct) (Bombyx mori, UniProt P49881).
T1 sequence (P49881 86-606): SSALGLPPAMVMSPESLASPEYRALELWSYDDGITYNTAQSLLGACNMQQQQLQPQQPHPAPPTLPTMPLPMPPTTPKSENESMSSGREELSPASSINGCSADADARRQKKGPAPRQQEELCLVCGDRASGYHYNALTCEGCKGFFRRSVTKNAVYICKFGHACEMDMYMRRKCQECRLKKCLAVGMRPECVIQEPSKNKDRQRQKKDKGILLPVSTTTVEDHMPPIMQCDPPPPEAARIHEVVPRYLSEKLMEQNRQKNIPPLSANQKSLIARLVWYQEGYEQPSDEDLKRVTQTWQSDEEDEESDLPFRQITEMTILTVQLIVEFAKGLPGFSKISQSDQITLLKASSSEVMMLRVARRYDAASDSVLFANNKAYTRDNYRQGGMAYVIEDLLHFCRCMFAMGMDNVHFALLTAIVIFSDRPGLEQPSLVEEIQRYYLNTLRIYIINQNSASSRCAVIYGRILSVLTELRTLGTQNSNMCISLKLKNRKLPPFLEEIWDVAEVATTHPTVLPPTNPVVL
T1 sequence (P19793 1-462 partner): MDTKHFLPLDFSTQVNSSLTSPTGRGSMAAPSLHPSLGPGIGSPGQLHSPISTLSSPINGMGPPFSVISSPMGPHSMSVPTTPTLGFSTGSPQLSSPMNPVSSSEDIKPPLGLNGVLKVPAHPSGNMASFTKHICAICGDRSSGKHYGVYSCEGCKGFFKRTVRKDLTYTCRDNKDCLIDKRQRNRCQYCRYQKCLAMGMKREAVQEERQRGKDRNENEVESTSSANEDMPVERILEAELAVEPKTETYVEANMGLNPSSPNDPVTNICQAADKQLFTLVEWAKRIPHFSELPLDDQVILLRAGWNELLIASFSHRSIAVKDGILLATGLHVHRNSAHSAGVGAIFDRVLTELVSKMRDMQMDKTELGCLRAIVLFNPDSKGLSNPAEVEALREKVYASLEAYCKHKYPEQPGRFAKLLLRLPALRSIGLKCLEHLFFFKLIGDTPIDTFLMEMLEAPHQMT
The series is described as follows: Z3 Assay (HEK-293 cells with CVBE and 6XEcRE LacZ, β-galactosidase reporter). The settings on record: for Fold Induction, Z3 Assay, 3.3 uM: 3.3 uM ligand; for Fold Induction, Z3 Assay, 3.3 uM / Fold Induction, Z3 Assay, 33 uM: ligand treated / DMSO treated cells; for Fold Induction, Z3 Assay, 33 uM: 33 uM ligand; for fold induction at 3.3 µM: HEK293, read-out: Fold Induction, Z3 Assay, 3.3 uM; for fold induction at 33 µM: HEK293, read-out: Fold Induction, Z3 Assay, 33 uM; for Z3 assay Rel Max FI: maximum fold induction at any concentration relative to that of GS-E ligand.

The mark [5] stands for this setting: read-out: Z3 assay EC50, HEK-293 Z3 cells, β-galactosidase reporter, average of two wells.
[6] abbreviates: RLU ligand treated / RLU DMSO treated cells, average of two wells.

The term pEC50 denotes −log10 of the EC50, conventionally taken in molar units. For `CCCC(N(NC(=O)c1ccc2c(c1C)OCCO2)C(=O)c1cc(C)cc(C)c1)C(C)(C)C` (centres unmarked) [RG-115864, 3,5-Dimethyl-benzoic acid N-(1-tert-butyl-butyl)-N′-(5-methyl-2,3-dihydro-benzo[1,4]dioxine-6-carbonyl)-hydrazide], in series [1], the “Secreted Alkaline Phosphatase Day 2” value is 6,722 ng/ml mouse sera and the “Secreted Alkaline Phosphatase Day 3” value was 5,652 ng/ml mouse sera. In series [2], the pEC50 is 8.40, the “27-63 assay Rel Max FI” value is reported as 0.979 and the fold induction at 33 µM is 1260.

As for `CCc1c(C(=O)NN(C(=O)c2cc(C)cc(C)c2)C(CC)C(C)(C)C)ccc2c1OCCO2` (centres unmarked) [RG-115858, 3,5-dimethyl-benzoic acid N′-(5-ethyl-2,3-dihydro-benzo[1,4]dioxine-6-carbonyl)-N-(1-ethyl-2,2-dimethyl-propyl)-hydrazide], in series [1], the “Secreted Alkaline Phosphatase Day 2” value is 13,661 ng/ml mouse sera and the “Secreted Alkaline Phosphatase Day 3” value was 11,820 ng/ml mouse sera. In addition, in series [2], the negative-log EC50 (pEC50) is 8.30, the “27-63 assay Rel Max FI” value is on record as 0.915 and the fold induction at 33 µM amounted to 182.

With `Cc1cc(C(=O)N(NC(=O)c2cccc(Cl)c2C)C(C)(C)C)ccc1Br` [RG-101664], the “Fold Induction, 13B3 Assay, 3.3 uM” value in series [3] (3.3 uM ligand, RLU ligand treated / RLU DMSO treated cells, average of two wells) is 1. Also, the “13B3 assay Rel Max FI” value in series [3] is recorded as 0.002. For the same molecule, the negative-log EC50 (pEC50) in series [3] (read-out: 13B3 EC50, CHO 13B3 stable cell line, luciferase reporter, 48 h, average of two wells) is less than 4.30. Besides, in series [4] (average of two wells), the “Fold Induction, Z3 Assay, 3.3 uM” value was found to be 6 and the “Fold Induction, Z3 Assay, 33 uM” value is 1. Besides, the negative logarithm of the EC50 (pEC50) in series [4] (setting [5]) is 4.68.

With `CCc1c(OC)cccc1C(=O)NN(C(=O)c1cc(C)cc(/C=N/NC(N)=O)c1)C(C)(C)C` [RG-115429, semicarbazide of N-(3-formyl-5-methyl-benzoyl)-N-tert-butyl-N′-(2-ethyl-3-methoxy-benzoyl) hydrazide], in series [3], the pEC50 is 5.06, the “13B3 assay Rel Max FI” value is reported as 1.065, the fold induction at 3.3 µM came to 18 and the fold induction at 33 µM is 1840. Moreover, in series [4], the negative-log EC50 (pEC50) is 5.02, the fold induction at 3.3 µM came to 3 and the fold induction at 33 µM amounted to 1720. Moreover, the “Z3 assay Rel Max FI” value in series [4] (HEK-293 Z3 cells) was determined as 0.880.

In the case of `CCc1c(C(=O)NN(C(=O)c2cc(F)c(Cl)cc2Cl)C(C)(C)C)ccc2c1OCCO2` [RG-115684], the “Fold Induction, 13B3 Assay, 33 uM” value in series [3] (setting [6]) came out at 151. The “Fold Induction, Z3 Assay, 33 uM” value in series [4] (average of two wells) came to 498.

Consider `COc1cccc(C(=O)NN(C(=O)c2cc(Cl)nc(Cl)c2)C(C)(C)C)c1C` [RG-100394], for which, in series [3] (setting [6]), the “Fold Induction, 13B3 Assay, 33 uM” value stood at 178. Moreover, in series [4] (average of two wells), the “Fold Induction, Z3 Assay, 3.3 uM” value is reported as 1339 and the “Fold Induction, Z3 Assay, 33 uM” value is given as 11. In series [4] (setting [5]), the negative-log EC50 (pEC50) was 5.91.

In the case of `CCc1c(OC)cccc1C(=O)NN(C(=O)c1cc(C)cc(C)c1)C(C)(C)COC` [RG-115006, 2-ethyl-3-methoxy-benzoic acid N′-(3,5-dimethyl-benzoyl)-N′-(2-methoxy-1,1-dimethyl-ethyl)-hydrazide], in series [3], the pEC50 is 5.46, the “13B3 assay Rel Max FI” value was found to be 0.890, the fold induction at 3.3 µM is 4180 and the fold induction at 33 µM came to 3150. Moreover, in series [4], the pEC50 is 6.56, the fold induction at 3.3 µM was 415 and the fold induction at 33 µM came to 1070. For the same molecule, the “Z3 assay Rel Max FI” value in series [4] (HEK-293 Z3 cells) is 1.031.
